Active and inactive are the calls of the source. The calls are words filed in the database; no cut-off is given here. Where a SMILES comes first, the peptide text is derived from it.
How the values were obtained:
[1] = target: T1, Dickkopf-related protein 1 (Homo sapiens) (UniProt O94907); assay: Inhibition of biotin-labeled human recombinant DKK1 assessed as reduction in DKK1 interaction with LRP-6/Fc incubated overnight by chemiluminescence based Alpha-screen assay
T1 sequence (whole entry): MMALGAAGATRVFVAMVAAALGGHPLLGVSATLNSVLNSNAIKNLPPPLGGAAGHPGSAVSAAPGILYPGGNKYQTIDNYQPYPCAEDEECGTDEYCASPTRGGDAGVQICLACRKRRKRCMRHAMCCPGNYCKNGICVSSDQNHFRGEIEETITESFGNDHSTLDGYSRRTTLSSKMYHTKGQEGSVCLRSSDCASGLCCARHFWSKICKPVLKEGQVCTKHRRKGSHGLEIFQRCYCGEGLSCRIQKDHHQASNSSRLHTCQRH

[2] = target: T2, Dickkopf WNT-signaling pathway inhibitor 1 (Rattus norvegicus) (UniProt A6I0Z0); assay: Inhibition of biotin-labeled rat recombinant DKK1 assessed as reduction in DKK1 interaction with LRP-6/Fc incubated overnight by chemiluminescence based Alpha-screen assay
T2 sequence (whole entry): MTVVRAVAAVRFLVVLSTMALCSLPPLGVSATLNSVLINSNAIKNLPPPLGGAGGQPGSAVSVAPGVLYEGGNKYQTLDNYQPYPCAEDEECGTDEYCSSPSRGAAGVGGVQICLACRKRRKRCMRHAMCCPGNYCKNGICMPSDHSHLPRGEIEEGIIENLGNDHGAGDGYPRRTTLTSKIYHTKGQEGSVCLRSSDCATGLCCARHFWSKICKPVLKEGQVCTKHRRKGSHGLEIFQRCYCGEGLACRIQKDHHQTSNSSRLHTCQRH

[3] = target: T3, Dickkopf-related protein 1 (Homo sapiens, UniProt O94907); assay: Inhibition of human DKK1 in MC3T3E1/TetON-Wnt1/STF-Luc#5 cells assessed as DKK1 neutralizing activity by Wnt1-induced TCF/LEF luciferase reporter gene assay
T3 sequence (O94907 whole entry): T1 sequence (whole entry)

SMILES | inhibition [1] | inhibition [2] | IC50 [3] [nM]
CSCC[C@H](NC(=O)[C@@H]1CCCN1C(=O)[C@H](Cc1ccc(O)cc1)NC(=O)[C@H](CS)NC(=O)[C@H](Cc1cnc[nH]1)NC(=O)[C@@H]1CCCN1C(=O)[C@H](Cc1cnc[nH]1)NC(=O)[C@H](CC(N)=O)NC(=O)[C@H](CCCNC(=N)N)NC(=O)[C@H](CS)NC(=O)[C@H](CCC(N)=O)NC(=O)[C@H](Cc1ccccc1)NC(=O)[C@H](Cc1ccc(O)cc1)NC(=O)[C@H](CO)NC(=O)[C@@H](NC(=O)[C@@H]1CCCN1C(=O)[C@@H](N)CS)C(C)C)C(=O)N[C@@H](CCC(=O)O)C(=O)N[C@@H](Cc1c[nH]c2ccccc12)C(=O)N[C@@H](CCCNC(=N)N)C(=O)N[C@@H](CS)C(=O)N[C@@H](CC(=O)O)C(=O)NCC(=O)N[C@@H](Cc1ccccc1)C(=O)N1CCC[C@H]1C(=O)N[C@@H](CC(=O)O)C(=O)N[C@@H](CS)C(=O)N[C@@H](CC(C)C)C(=O)N[C@@H](CC(=O)O)C(=O)N[C@@H](CCC(=O)O)C(=O)N[C@@H](CO)C(=O)N[C@@H](CC(=O)O)C(=O)N[C@@H](CCC(=O)O)C(=O)N[C@@H](CCCCN)C(=O)NCC(=O)N[C@@H](CS)C(=O)NCC(=O)NCC(=O)NCC(=O)NCC(=O)O (H-CPVSYFQCRNHPHCYPMEWRCDGFPDCLDESDEKGCGGGG-OH) | Active | Active | 0.8 to 3
CC[C@H](C)[C@H](NC(=O)[C@H](CS)NC(=O)[C@H](CC(=O)O)NC(=O)[C@@H]1CCCN1C(=O)[C@H](Cc1ccccc1)NC(=O)CNC(=O)[C@H](CC(=O)O)NC(=O)[C@H](CS)NC(=O)[C@H](CCCNC(=N)N)NC(=O)[C@H](Cc1c[nH]c2ccccc12)NC(=O)[C@H](CCC(=O)O)NC(=O)[C@H](CCSC)NC(=O)[C@@H]1CCCN1C(=O)[C@H](Cc1ccc(O)cc1)NC(=O)[C@H](CS)NC(=O)[C@H](Cc1cnc[nH]1)NC(=O)[C@@H]1CCCN1C(=O)[C@H](Cc1cnc[nH]1)NC(=O)[C@H](CCCCN)NC(=O)[C@H](CCCNC(=N)N)NC(=O)[C@H](CS)NC(=O)[C@H](CCC(N)=O)NC(=O)[C@H](Cc1ccccc1)NC(=O)[C@H](Cc1ccc(O)cc1)NC(=O)[C@H](CO)NC(=O)[C@H](C)NC(=O)[C@@H]1CCCN1C(=O)[C@@H](N)CS)C(=O)N[C@@H](CC(=O)O)C(=O)NCC(=O)N[C@@H](CO)C(=O)N[C@@H](CC(=O)O)C(=O)N[C@@H](CCC(=O)O)C(=O)N[C@@H](CCC(=O)O)C(=O)N[C@@H](CCCNC(=N)N)C(=O)N[C@@H](CS)C(=O)NCC(=O)NCC(=O)NCC(=O)NCC(=O)O (H-CPASYFQCRKHPHCYPMEWRCDGFPDCIDGSDEERCGGGG-OH) | Active | Active | 0.8 to 3

From ChEMBL document CHEMBL4417633, “Inhibitory polypeptides specific to WNT inhibitors” (2017)
